In PMC8596125, “Self‐Stabilized Supramolecular Assemblies Constructed from PEGylated Dendritic Peptide Conjugate for Augmenting Tumor Retention and Therapy” (Advanced Science, 2021):

Tested on: 4T1 cells
Assay: Cytotoxicity, CCK-8 assay, 4T1
Format: cell-based, mouse
Procedure: The CCK-8 assay was used to examine the photodynamic therapeutic effect of SSAs on cell viability against three cell lines. 4×103 4T1 cells per well were seeded in a 96-well plate, and then incubated overnight. The cells were treated with different concentrations of Ppa and SSAs at an equivalent Ppa dose. After 24 h incubation, the medium was replaced with fresh one, and the wells were irradiated using a 660 nm laser with 1 J cm−2. After 24 h, the spent media was replaced and the cell viability was assessed using the CCK-8 reagent. The absorbance at […] of each well was recorded on a microplate reader. Untreated cells were served as a control. Results were presented as the average cell viability by following the manufacturer’s instruction. IC50 values were calculated by using nonlinear regression in software Graphpad Prism7. The cytotoxicity of SSAs and Ppa with or without laser against A549 cell line was also measured through the same procedure.
The cytotoxicity of SSAs and PDP without laser irradiation was also measured by […]

Structure (SMILES): C=Cc1c(C)c2cc3nc(c4c5[nH]c(cc6nc(cc1[nH]2)C(C)=C6CC)c(C)c5C(=O)C4)[C@@H](CCC(=O)O)[C@@H]3C [Ppa, pyropheophorbide a]
- Cytotoxicity with laser irradiation (24 h incubation, 660 nm laser, CCK-8, n = 3): notable cytotoxicity
- Concentration above which very cytotoxic without irradiation (no light, CCK-8): higher than 1 µg mL^−1
